Patent US20230129485A1, “SYSTEM AND METHOD FOR DETERMINING MATERIAL PROPERTIES OF MOLECULAR SYSTEMS FROM AN AB-INITIO PARAMETERIZED FORCE-FIELD” (InterX, Inc., priority 2021, published 2023)
Where two headings read alike, the source gives them in different places.

Assays:
[1] = Free energy of hydration predicted with the QM-parameterized force field model (ARROW FF), classical MD and PIMD simulation in a water box; conditions: for Arrow error: Table 5, error of Arrow PIMD8 hydration free energy vs experiment; for Arrow PIMD8 Error: absolute error vs Exp (hydration)
Description: For example, the example QM-parameterized force-field molecular simulation process 400 can use Bennett Acceptance Ratio (BAR) to compute the free energy of hydration/solvation of the molecule in water or any other solvent. In some implementations, the analysis of the molecular dynamics simulations includes analysis, predication, and visualization of ensemble properties of atoms/molecules from atomic and molecular trajectories using the optimized parameters of the QM-parameterized force field model (i.e., the quantum mechanics rule-based reasoning technique) and the QM-parameterized force field model.
(§1) In some simulations of the QM-parameterized force field molecular simulation process, the molecules were placed in a water or cyclohexane box of size 32×32×32 Å3. Particle-Mesh Ewald (PME) algorithm was used to compute the electrostatic interactions. A 32×32×32 grid mesh and 5th power spline interpolation order can be used to compute the inverse PME sum. 9 Å cutoffs were used to compute the direct PME sum as well as the exchange and dispersion interactions. Bulk corrections were applied to account for distance cut-off of dispersion interactions. Solvation free energies were computed by decoupling the interactions between the solute and the solvent molecules. Electrostatic, exchange-repulsion and dispersion interactions were switched off simultaneously using a lambda-dependent scaling (a scaling factor power=2 was used) and a soft-coring algorithm (maximal soft-coring radius=1.5 Å, soft-coring radius scaling factor power=1). 15 lambda points unequally spaced (X=0, 0.05, 0.1, 0.2, 0.3, 0.4, 0.5, 0.6, 0.7, 0.75, 0.8, 0.85, 0.9, 0.95, 1.0) were used to decouple the solute-solvent intermolecular interactions.
(§2) In some simulations of the QM-parameterized force field molecular simulation process, energy minimization (10,000 steps) using the steepest descent algorithm was initially performed on all the simulation systems. This was followed by a 50 ps equilibration and 1 ns production runs in the isothermal-isobaric ensemble (NPT). […] Pressure was maintained at 1 atm using a MTTK barostat (relaxation time=5 ps). A Multiple Time Step (MTS) algorithm was used to integrate the equations of motion both for the classical and path-integral runs. […] The calculations were performed using the QM-parameterized force field model.
Using the QM-parameterized force field model, the QM-parameterized force field device can compute or predict the solvation free energies using both the Bennett acceptance ratio (BAR) and thermodynamic integration (TI) method with <dH/dλ> values interpolated by cubic splines. […] FIG. 7A illustrates a <dH/dλ> dependence for desolvation of Anthracene in water. FIG. 7B illustrates accumulated statistical errors for TI calculations of AG desolvation of Anthracene in water.

[2] = Free energy of hydration predicted by General Amber Force Field (GAFF), from literature; conditions: Table 5; error of GAFF hydration free energy vs experiment
[3] = Free energy of hydration predicted by polarizable AMOEBA force field, from literature; conditions: Table 5; error of AMOEBA hydration free energy vs experiment
[4] = Free energy of hydration by COSMO implicit solvent model (MolPro ver. 2012); conditions: absolute error vs Exp (hydration)
Protocol: (§3) Due to unavailability of free energy data for the original COSMO model, the free energies of solvation for the molecule dataset are calculated using MolPro ver. […] The comparisons to other implicit solvent models such as SMD, PCM and COSMO-RS are limited to the overlap of the molecules computed using QM-parameterized force field model. The free energies of hydration as predicted by these implicit solvent models (SMD, PCM) were received.

[5] = experimental, cited from earlier work; for Exp (hydration): Table 5
[6] = Table 5; free energy of hydration, GAFF prediction taken from literature; cited from earlier work
[7] = Table 5; free energy of hydration, AMOEBA prediction taken from literature; cited from earlier work
[8] = Free energy of hydration by Solvation Model Dielectric (SMD) implicit solvent model; conditions: absolute error vs Exp (hydration)
Protocol: as §3

[9] = Free energy of hydration by Polarizable Continuum Model (PCM); conditions: absolute error vs Exp (hydration)
Protocol: as §3

[10] = Free energy of hydration by COSMO-RS
Protocol: as §3

[11] = implicit solvent model, values received; cited from earlier work
[12] = implicit solvent model, values received; cited from earlier work; remark: listed apart in the source
[13] = Free energy of solvation in cyclohexane predicted with the QM-parameterized force field model (ARROW FF), MD and PIMD; conditions: Table 4
Description: Cyclohexane (CHEX) is nonpolar and equilibrates relatively quickly.
as §1, with “Particle-Mesh” for “In some simulations of the QM-parameterized force field molecular simulation process, the molecules were placed in a water or cyclohexane box of size 32×32×32 Å3. Particle-Mesh”
as §2
Using the QM-parameterized force field model, the QM-parameterized force field device can compute or predict the solvation free energies using both the Bennett acceptance ratio (BAR) and thermodynamic integration (TI) method with <dH/dλ> values interpolated by cubic splines.

[14] = CHEX/H2O partition coefficient (log D) predicted with the QM-parameterized force field model (ARROW FF)
Description: In some simulations, the example QM-parameterized force-field molecular simulation process includes using the functional form of the bonded interactions, with force constants and equilibrium values fitted to QM energies at the MP2/aug-cc-pVTZ level of theory. In some simulations, solvents of water and cyclohexane are selected. Cyclohexane (CHEX) is nonpolar and equilibrates relatively quickly. Reliable experimental data for both CHEX solvation free energies, as well as for the CHEX/H2O partition coefficients are used in these simulations.
In some example simulations, solutes containing neutral chemical functional groups, for example carboxylic acids, alkanes, alkenes, aromatics, aldehydes, ketones, alcohols, amides, esters, thiols, sulfides, disulfides and heterocycles, are used. The simulations were performed independently by four groups using their own respective computational resources and architectures, and then averaged. FIGS. 9A-9C show solvation and hydration free energies predictions of various solutes, using the QM-parameterized force field model, in some embodiments.
The straight line is a line of agreement between experimental and simulated/predicted values, and the gray bar is the range or chemical accuracy. […] The molecules here are a subset of those in a) because only those with experimental values for CHEX solvation can be included.

[15] = experimental, cited from earlier work
[16] = CHEX/H2O partition coefficient, experimental, cited from earlier work
[17] = Table 3, absolute error of MD hydration free energy vs experiment
[18] = Table 3, absolute error of PIMD8 hydration free energy vs experiment
[19] = Table 3, free energy of hydration

| Compound | water Arrow MD Error [1, 17] [kcal/mol] | water Arrow PIMD8 Error [1, 18] [kcal/mol] | Arrow error [1] [kcal/mol] | Arrow PIMD8 Error [1] [kcal/mol] | GAFF error [2] [kcal/mol] | AMOEBA error [3] [kcal/mol] | COSMO/Molpro Error [4] [kcal/mol] | water Exp (hydration) [5, 19] [kcal/mol] | Exp (hydration) ([5]; free energy of hydration) [kcal/mol] | GAFF [6] [kcal/mol] | AMOEBA [7] [kcal/mol] | SMD Error [8] [kcal/mol] | PCM Error [9] [kcal/mol] | COSMO-RS error [10] [kcal/mol] | SMD free energy of hydration [11] [kcal/mol] | PCM free energy of hydration [12] [kcal/mol] | other results |
| --- | --- | --- | --- | --- | --- | --- | --- | --- | --- | --- | --- | --- | --- | --- | --- | --- | --- |
| CCCCS [1-Butanethiol] | 1.15 | 0.50 | 0.50 | 0.50 | 0.69 | 0.87 | 3.06 | -0.99 | -0.99 | -1.68 | -0.12 |  |  |  |  |  |  |
| C=CCC [But-1-ene] | 0.54 | 0.25 | 0.25 | 0.25 | 1.10 | 0.55 | 3.14 | 1.38 | 1.38 | 2.48 | 0.83 | 0.18 | 2.18 | 0.36 | 1.20 | -0.80 |  |
| COC [DiMethylEther] | 0.87 | 0.37 | 0.37 | 0.37 | 1.06 | 0.31 | 1.99 | -1.91 | -1.91 | -0.85 | -2.22 | 1.31 | 0.11 |  | -0.60 | -1.80 |  |
| CSC [DiMethylSulfide] | 0.59 | 0.16 | 0.16 | 0.16 | 0.31 | 0.31 | 2.61 | -1.54 | -1.54 | -1.85 | -1.85 | 1.24 | 0.56 |  | -0.30 | -2.10 |  |
| c1c[nH]cn1 [Imidazole] | 0.81 | 0.29 | 0.29 | 0.29 | 1.75 | 0.65 | 3.71 | -9.6 | -9.60 | -7.85 | -10.25 | 0.60 | 2.90 | 1.30 | -9.00 | -6.70 |  |
| CNC [dimethylamine] | 1.38 | 0.23 | 0.23 | 0.23 | 1.19 | 1.26 | 0.57 | -4.30 | -4.30 | -3.11 | -3.04 | 1.10 | 2.30 | 2.12 | -3.20 | -2.00 |  |
| CCC(=O)O [propionicacid] | 0.24 | 0.25 |  | 0.25 |  |  | 2.03 | -6.46 |  |  |  | 0.96 | 2.16 | 0.15 | -5.50 | -4.30 | water Arrow MD Error ([1]; Table 4, error of MD hydration free energy vs experiment): 0.24 kcal/mol; water Arrow PIMD8 Error ([1]; Table 4, error of PIMD8 hydration free energy vs experiment): 0.25 kcal/mol; CHEX Arrow MD Error ([13]; error of MD cyclohexane solvation free energy vs experiment): 0.06 kcal/mol; CHEX Arrow PIMD4 Error ([13]; error of PIMD4 cyclohexane solvation free energy vs experiment): 0.18 kcal/mol; log D Arrow MD Error [14]: 0.22; log D Arrow PIMD Error [14]: 0.05; logD Arrow MD Error [14]: 0.22; logD Arrow PIMD Error [14]: 0.05; water Exp (hydration) ([5]; Table 4, neutral amino-acid analogues): -6.46 kcal/mol; CHEX Exp (solvation) ([15]; Table 3, free energy of solvation in cyclohexane): -3.32 kcal/mol; CHEX Exp (solvation) ([15]; Table 4, solvation free energy in cyclohexane): -3.32 kcal/mol; Exp (log D) ([16]; Table 3): −2.30; logD Exp (logD) ([16]; Table 4): −2.30 |
